Test: Dissolution of IPBC in MPEG-350/DMSO versus PEG-400/DMSO
Format: physicochemical
Details: 60% IPBC solution
Protocol: In a 100 ml beaker is added about 25 ml of solvent, and the weight is recorded to four significant digits. The beaker is heated to 40-60° C. (depending on the active being tested) in a water bath. The solute of interest is added stepwise (all aliquot weights are recorded to four significant digits) until saturation is achieved. Once the solid remains undissolved, back-titration with known weights of solvent are performed until the solution is clear.
This example compares the viscosity and VOC content of 55 and 60% IPBC formulations in MPEG-350/DMSO and PEG-400/DMSO. For the 55% IPBC solutions, 10% DMSO is used. For the 60% solutions, only 10% DMSO is required for complete dissolution of the IPBC when MPEG is used, however, 15% DMSO is required for complete dissolution of the IPBC when PEG 400 is used. Viscosity and VOC data are in Table 6.

With `CCCCNC(=O)OCC#CI` [IPBC, 3-iodo-2-propynyl butyl carbamate] the “DMSO required for complete dissolution of the IPBC” value (MPEG used) was 10% and the “DMSO required for complete dissolution of the IPBC” value (PEG 400 used) was 15%.

Reference: patent US20100286217A1, “STABLE, LOW VOC, LOW VISCOUS BIOCIDAL FORMULATIONS AND METHOD OF MAKING SUCH FORMULATIONS” (priority 2008, published 2010)
